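Cultured in 96-well plates, cells were exposed to test compound for 48 hours across five concentrations. TGI denotes the concentration required for complete inhibition of growth.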
What was measured:
Assay in all cases: NCI tumour cell line growth inhibition, 48 h
DMS 114 small cell lung = system: DMS 114 small cell lung
LXFL 529 NSCLC = system: LXFL 529 NSCLC
KM20L2 colon = system: KM20L2 colon
RXF-631 renal = system: RXF-631 renal
XF 498 CNS = system: XF 498 CNS

Row | SMILES | TGI (DMS 114 small cell lung) | TGI (LXFL 529 NSCLC) | TGI (KM20L2 colon) | TGI (RXF-631 renal) | TGI (XF 498 CNS)
1 | C/C=C/C=N/N(c1nnc(-c2ccccc2)c(-c2ccccc2)n1)S(=O)(=O)c1ccc(C)cc1 | 37.6 µM | 19.3 µM | 26.1 µM | 73.2 µM | –
2 | O=C(c1cc(=O)c2ccc(O)cc2o1)c1ccc(Cl)cc1Cl | > 64 µM | – | > 100 µM | > 100 µM | 62.6 µM
3 | O=C(CC(=O)N1N=C(n2ccc3ccccc32)CC1c1ccccc1)Nc1cccc(Cl)c1 (stereo not drawn) | – | > 100 µM | > 100 µM | > 100 µM | –
4 | CCCCCCCCCCCCCCCCOC(=O)C(C(=O)OCCCCCCCCCCCCCCCC)[N+](C)(C)CCOC(C)=O | 41.8 µM | 37.2 µM | 50 µM | 30.5 µM | –
5 | CCc1cccc(C(C)CC)c1N=C(NC(=O)c1ccccc1C(=O)NC(=Nc1c(CC)cccc1C(C)CC)SC)SC (stereo not drawn) | – | > 100 µM | 79.6 µM | > 100 µM | > 100 µM
6 | COC(=O)CCC(NC(=S)N/N=C(\C)c1ccccn1)C(=O)OC (stereo not drawn) | 75.8 µM | > 100 µM | > 100 µM | > 100 µM | > 100 µM
7 | NC(=S)N/N=C(/CC(=O)c1ccc([N+](=O)[O-])cc1)C(=O)Nc1ncc([N+](=O)[O-])s1 | > 100 µM | > 100 µM | > 100 µM | > 100 µM | > 100 µM
8 | CC(=O)OC1(C#N)CC2OC1C1C2N1C(=O)c1ccccc1 (stereo not drawn) | > 100 µM | > 100 µM | > 100 µM | > 100 µM | > 100 µM
9 | C/C(CN1C(=O)c2ccccc2C1=O)=N\NS(=O)(=O)c1ccccc1 | > 100 µM | > 100 µM | > 100 µM | > 100 µM | –
10 | COc1c(OC(C)=O)cc2c(OC(C)=O)c1CC(C)CC(OC)C(O)C(C)/C=C(\C)C(OC(N)=O)C(OC)/C=C\C=C(/C)C(=O)N2 (stereo not drawn) | > 100 µM | > 100 µM | > 100 µM | > 100 µM | > 100 µM
11 | OC(c1ccccc1)(c1ccccc1)c1ccccn1 | > 100 µM | > 100 µM | > 100 µM | > 100 µM | > 100 µM
12 | CCC(=O)C1=C(OC(C)=O)C2Cc3c(n(C)c4ccccc34)C(C1)N2C (stereo not drawn) | 58.7 µM | > 100 µM | > 100 µM | 67.2 µM | –
13 | Cc1ccc2nc3c(Cl)cc(=O)cc-3sc2c1 | 48.1 µM | 63.1 µM | – | > 100 µM | –
14 | CC1=C(C(=O)Nc2cccc(C(F)(F)F)c2)C(c2ccc(O)cc2)C(C(=O)Nc2cccc(C(F)(F)F)c2)=C(C)N1 | 45.8 µM | 55.3 µM | 54.6 µM | 41.6 µM | 8.06 µM
15 | Nc1nnc2nc(CC(=O)/C=C/c3ccccc3)c(=O)[nH]n12 | > 100 µM | > 100 µM | > 100 µM | > 100 µM | > 100 µM
16 | CC(=O)CC(=O)CCCC(=O)Nc1ccc(Cl)cc1C | > 100 µM | > 100 µM | > 100 µM | > 100 µM | –
17 | Cc1cc2c3ccccc3n(C)c2c2c1C(=O)c1ccccc1C2=O | 46 µM | 35.5 µM | – | 98.5 µM | 35.7 µM

Reference: PubChem BioAssay (NCI)
